Measured values taken from patent EP0870197B2, “USE OF NUCLEAR MAGNETIC RESONANCE TO DESIGN LIGANDS TO TARGET BIOMOLECULES” (priority 1995, dated 1997).
Where two headings read alike, the source gives them in different places.

Columns and labels:
[1] = target: T1, DNA-binding domain of the E2 protein (Human papillomavirus 31, UniProt P17383); assay: two-dimensional 15N/1H NMR correlation titration, binding constants for two binding sites
T1 construct: made in house; host or cells: bacteria, T7 expression system
T1 sequence (P17383 292-372): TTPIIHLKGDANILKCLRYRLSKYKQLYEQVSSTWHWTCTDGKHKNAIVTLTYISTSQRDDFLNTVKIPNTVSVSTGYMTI
Procedure: Compounds from the database were screened in a similar manner for binding to the DNA-binding domain of the E2 protein. Those compounds had the structure II below, where R1-R4 and A are defined in Table 2. [drawing 5]
NMR experiments were performed at 29°C on a Bruker AMX500 NMR spectrometer equipped with a triple resonance probe and Bruker sample changer. The ^15N-/^1H HSQC spectra were acquired as 80 x 1024 complex points using sweep widths of 2000 Hz (^15N,t1) and 8333 Hz (^1H, t2). A delay of 1 second between scans and 4 scans per free induction decay were employed in the data collection. All NMR spectra were processed and analyzed on Silicon Graphics computers.
By monitoring the chemical shift changes as a function of ligand concentration, binding constants for the two binding sites were also measured. Table 2 […]

FKBP [2] = target: T2, FKBP (Homo sapiens, UniProt P62942); assay: two-dimensional 15N/1H NMR correlation titration, dissociation constant; format: binding; parameters: made in house; host or cells: recombinant
T2 sequence (P62942 whole entry, the tested form may be a part): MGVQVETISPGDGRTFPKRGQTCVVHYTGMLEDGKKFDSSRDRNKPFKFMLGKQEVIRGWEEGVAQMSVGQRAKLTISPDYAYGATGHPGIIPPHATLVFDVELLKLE
Procedure: The second step in the design process was the identification of a second ligand that bound to the target FKBP at a site different from the binding site of compound 29. This was accomplished by screening compounds for their ability to bind to FKBP in the presence of saturating amounts of the ascomycin fragment analog (compound 29). Details of procedures for this second identification step are as set forth in example 2.
In the second round of screening, binding was assayed both in the presence and in the absence of saturating amount of compound 29 (1 mM).
Various benzanilide compounds were tested for binding to FKBP at multiple ligand concentrations. The ^15N/^1H correlation spectra generated at each concentration were evaluated to quantify differences in the spectra as a function of compound concentration. A binding or dissociation constant (Kd) was calculated, using standard procedures well known in the art, from those differences. The values for R1-R4 in Table 5 refer to the corresponding positions in the structure III, above.

[3] = target: T3, catalytic domain of stromelysin (Homo sapiens, UniProt P08254); assay: enzymatic assay, cleavage of a fluorogenic substrate; format: biochemical
T3 construct: expression construct coding for amino acid residues 81-256 plus an initiating methionine; initiating methionine (N); made in house; host or cells: E. coli BL21(DE3)/pLysS, pET3d
T3 sequence (P08254 98-273): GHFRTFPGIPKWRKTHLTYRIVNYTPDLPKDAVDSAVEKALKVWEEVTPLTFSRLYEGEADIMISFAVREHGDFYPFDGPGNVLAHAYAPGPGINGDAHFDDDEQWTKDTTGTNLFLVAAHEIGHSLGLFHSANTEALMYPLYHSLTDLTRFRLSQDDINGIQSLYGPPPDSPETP
Procedure: In a first study, binding constants were determined, both by the NMR method of the present invention, and by a prior art enzymatic assay. The target molecule was the catalytic domain of stromelysin prepared in accordance with the procedures of Example 1. […] The KD values so obtained were compared to an inhibition constant KI as determined in an enzymatic assay.
The enzymatic assay measured the rate of cleavage of a fluorogenic substrate by following the fluorescence increase upon peptide cleavage which causes a separation between the fluorophore and quencher. Enzymatic activity was measured using a matrix of different concentrations of acetohydroxamic acid and biaryl compounds. The assay is a modification of the method described by H. Weingarten, et al. in Anal. Biochem., 147: 437-440 (1985) employing the fluorogenic substrate properties described by E. Matayoshi, et al. in Science: 247: 954-958 (1990).
Eight acetohydroxamic acid concentrations were used ranging from 0.0 to 1.0 M, and six compound concentrations were used, resulting in a total of 48 points. Individual compound concentration varied due to solubility and potency.
All NMR measurements were performed in the presence of 500 mM acetohydroxamic acid, except for the titration of acetohydroxamic acid itself. Dissociation constants were obtained from the dependence of the observed chemical shift changes upon added ligand. Inhibition constants were then obtained from the inhibition data using standard procedures.

[4] = target: T3, catalytic domain of stromelysin; assay: two-dimensional 15N/1H NMR correlation titration, dissociation constant; format: binding
Procedure: Binding or dissociation constants are measured by following the ^15N/^1H chemical shifts of the protein as a function of ligand concentration. A known concentration ([P]o) of the target molecule is mixed with a known concentration ([L]0) of a previously identified ligand and the two-dimensional ^15N/^1H correlation spectrum was acquired. From this spectrum, observed chemical shift values (δobs) are obtained. The process is repeated for varying concentrations of the ligand to the point of saturation of the target molecule, when possible, in which case the limiting chemical shift value for saturation (δsat) is measured.
In those situations where saturation of the target molecule is achieved, the dissociation constant for the binding of a particular ligand to the target molecule is calculated using the formula: KD = (([P]0−x)([L]0−x))/(x) [formula] where [P]0 is the total molar concentration of target molecule; [L]0 is the total molar concentration of ligand; and x is the molar concentration of the bound species. The value of x is determined from the equation: x = (δobs −δfree)/(Δ) [formula] where δfree is the chemical shift of the free species; δobs is the observed chemical shift; and Δ is the difference between the limiting chemical shift value for saturation (δsat) and the chemical shift value of the target molecule free of ligand (δfree).
The dissociation constant is then determined by varying its value until a best fitto the observed data is obtained using standard curve-fitting statistical methods. In the case where δsat is not directly known, both KD and δsat are varied and subjected to the same curve-fitting procedure.
The catalytic domain of stromelysin was prepared in accordance with the procedures of Example 1. The protein solutions used in the screening assay contained the uniformly ^15N-labeled catalytic domain of stromelysin (0.3 mM), acetohydroxamic acid (500 mM), CaCl2 (20 mM), and sodium azide (0.5%) in a H2O/D2O (9/1) TRIS buffered solution (50 mM, pH=7.0).
Two-dimensional ^15N/^1H NMR spectra were generated at 29°C on a Bruker AMX500 NMR spectrometer equipped with a triple resonance probe and Bruker sample changer. The ^15N/^1H HSQC spectra were acquired as 80 x 1024 complex points using sweep widths of 2000 Hz (^15N, t^1) and 8333 Hz (^1H, t2). A delay of 1 second between scans and 8 scans perfree induction decay(fid) were employed in the data collection. All NMR spectra were processed and analyzed on Silicon Graphics computers using in-house-written software.
A first two-dimensional ^15N/^1 H NMR correlation spectrum was acquired for the ^15N-labeled stromelysin target molecule as described above. The stromelysin target was then exposed to a database of test compounds. Stock solutions of the compounds were made at 100 mM and 1 M. In addition, a combination library was prepared that contained 8-10 compounds per sample at a concentration of 100 mM for each compound.
The NMR samples were prepared by adding 4 µl of the DMSO stock solution of the compound mixtures that contained each compound at a concentration of 100 mM to 0.4 ml H2O/D2O (9/1) buffered solution of the uniformly ^15N-labeled protein. The final concentration of each of the compounds in the NMR sample was about 1 mM.
Various biaryl compounds of structure I were tested for binding to stromelysin at differing concentrations. The ^15N/^1H spectra generated at each concentration were evaluated to quantify differences in the spectra as a function of compound concentration. A binding or dissociation constant (KD)was calculated, using standard procedures well known in the art, from those differences. The values for R1-R3 and A1-A3 in Table 1 refer to the corresponding positions in the structure I, above.
All NMR measurements were performed in the presence of 500 mM acetohydroxamic acid, except for the titration of acetohydroxamic acid itself. Dissociation constants were obtained from the dependence of the observed chemical shift changes upon added ligand. […]

Stromelysin [5] = target: T4, Stromelysin (Homo sapiens, UniProt P08254); assay: stromelysin inhibition by linked hydroxamate-biaryl compounds; format: biochemical; settings: for IC50: Table 4, kind of constant not given
T4 construct: expression construct coding for amino acid residues 81-256 plus an initiating methionine; initiating methionine (N); made in house; host or cells: E. coli BL21(DE3)/pLysS, pET3d
T4 sequence (P08254 98-273): as above

FKBP [6] = target: T2, FKBP; assay: binding affinity by fluorescence titrations; parameters: made in house
water solubility = format: physicochemical
Stromelysin [7] = target: T4, Stromelysin; assay: inhibition of stromelysin degradation (autolysis); format: biochemical; settings: at a concentration of 500 mM
Procedure: Studies were performed to design new ligands that bound to the catalytic domain of stromelysin. Because stromelysin undergoes autolysis, an inhibitor was sought to block the degradation of stromelysin. That inhibitor would facilitate the screening of other potential ligands that bind to other sites on the enzyme.
A variety of hydroxamic acids of the general formula R-(CO)NHOH were screened for binding to stromelysin using the procedures set forth in Example 2.

[8] = amides of the DNA-binding site, read-out: DNA KD
[9] = amides of the β-barrel site, read-out: β-barrel KD
[10] = Table 1, biaryl compounds of structure I, differing concentrations, read-out: KD
[11] = fluorogenic substrate, matrix of acetohydroxamic acid and compound concentrations, read-out: Assay KI
[12] = Table 3, in the presence of 500 mM acetohydroxamic acid, read-out: NMR KD

O=C(O)C=Cc1ccc(-c2ccccc2)cc1 [Compound 18]
Kd [1, 8]: 1200 µM
Kd [1, 9]: 6200 µM

Cc1cc(C(=O)Nc2ccc(O)cc2)ccc1O [Compound 35]
Kd (FKBP [2]): 500 µM

O=C(Nc1ccccc1)c1ccccc1 [Compound 36]
Kd (FKBP [2]): > 5000 µM

c1ccc(-c2ccncc2)cc1 [Compound 7]
Ki ([3]; read-out: Assay KI): 320 µM
Kd ([4]; read-out: KD): 200 µM
Kd ([4]; read-out: NMR KD): 170 µM

O=C(c1ccccc1)c1cccc(O)c1 [Compound 13]
Kd [1, 8]: > 50000 µM
Kd [1, 9]: 600 µM

O=C(CCCCCOc1ccc(-c2ccccc2)cc1)NO [Compound 24]
inhibition at 100 µM (Stromelysin [5]): 43%

O=C(CCOc1ccc(-c2ccccc2)cc1)NO [Compound 21]
IC50 (Stromelysin [5]): 0.31 µM

COc1cc(C(=O)C(=O)N2CCCC[C@H]2C(=O)OCCCOc2ccc(C(=O)Nc3ccc(O)cc3)cc2)cc(OC)c1OC
Kd (FKBP [6]): 0.019 µM
increase in potency over the ascomycin-fragment analog (compound 29) alone (FKBP [6]): 100 fold

O=C(CCCOc1ccc(-c2ccccc2)cc1)NO [Compound 22]
IC50 (Stromelysin [5]): 110 µM

O=C(Nc1ccccc1)c1ccc(O)cc1 [Compound 32]
Kd (FKBP [2]): 500 µM

O=C(O)CCC(=O)c1ccc(Oc2ccccc2)cc1 [Compound 20]
Kd [1, 8]: 2700 µM
Kd [1, 9]: 4800 µM

O=C(Nc1ccc(O)cc1)c1ccccc1 [Compound 34]
Kd (FKBP [2]): 600 µM

O=C(Nc1ccccc1)c1ccccc1O [Compound 37]
Kd (FKBP [2]): > 5000 µM

COc1ccc(-c2ccccc2)cc1N [Compound 6]
Kd [4, 10]: 400 µM

CC(=O)Oc1ccc(-c2ccccc2)cc1 [Compound 8]
Kd [4, 10]: 300 µM

O=Cc1ccc(-c2ccccc2)cc1 [Compound 5]
Kd [4]: 1700 µM

OCc1cccc(Oc2ccccc2)c1 [Compound 14]
Kd [1, 8]: > 50000 µM
Kd [1, 9]: 2000 µM

O=C(CCCCOc1ccc(-c2ccccc2)cc1)NO [Compound 23]
inhibition at 100 µM (Stromelysin [5]): 38%

N#Cc1ccc(-c2ccc(OCCCCCC(=O)NO)cc2)cc1 [Compound 28]
IC50 (Stromelysin [5]): 1.7 µM

O=C(Nc1ccc(O)cc1)c1ccc(O)cc1 [Compound 33]
Kd (FKBP [2]): 100 µM

N#Cc1ccc(-c2ccc(OCCCC(=O)NO)cc2)cc1 [Compound 26]
IC50 (Stromelysin [5]): 3.4 µM

N#Cc1ccc(-c2ccc(OCCC(=O)NO)cc2)cc1 [Compound 25]
IC50 (Stromelysin [5]): 0.025 µM

Oc1cccc(-c2ccccc2)c1 [Compound 1]
Kd [4]: 1100 µM

Oc1ccc(-c2ccc(Br)cc2)cc1 [Compound 3]
Kd [4, 10]: 1300 µM

COC(=O)[C@@H]1CCCCN1C(=O)C(=O)c1cc(OC)c(OC)c(OC)c1 [Compound 29]
Kd (FKBP [6]): 2 µM
occupancy of the binding site (FKBP [2]; ligand concentrations of 1 mM): > 98%

c1cc(-c2ccncc2)ccn1 [Compound 10]
Ki [3]: 1800 µM
Kd [4]: 400 µM
Kd ([4]; read-out: NMR KD, Table 3, in the presence of 500 mM acetohydroxamic acid): 400 µM

c1ccc(-c2ccncn2)cc1 [Compound 4]
Ki [3, 11]: 7400 µM
Kd [4, 10]: 1600 µM
Kd [4, 12]: 1600 µM

N#Cc1ccc(-c2ccc(O)cc2)cc1 [Compound 12]
Ki [3, 11]: 110 µM
Kd [4, 10]: 10 µM
Kd [4, 12]: 20 µM

Oc1ccc(-c2ccc(O)cc2)cc1 [Compound 9]
Ki [3, 11]: 700 µM
Kd [4, 10]: 10 µM
Kd [4, 12]: 160 µM

O=C(O)c1ccc(-c2ccccc2)cc1 [Compound 15]
Kd [1, 8]: 2000 µM
Kd [1, 9]: > 50000 µM

O=C(O)Cc1ccc(-c2ccccc2)cc1 [Compound 17]
Kd [1, 8]: 4200 µM
Kd [1, 9]: 4900 µM

O=C(Nc1ccc(O)cc1)c1ccccc1O [Compound 30]
Kd (FKBP [2]): 800 µM

N#Cc1ccc(-c2ccc(OCCCCC(=O)NO)cc2)cc1 [Compound 27]
IC50 (Stromelysin [5]): 3.5 µM

Oc1ccc(-c2ccccc2)cc1 [Compound 11]
Kd [4]: 300 µM

CC(=O)NO [Acetohydroxamic acid, acetohydroxamic acid, reference compound]
water solubility (water solubility): good water solubility
degradation of the enzyme (Stromelysin [7]): inhibited the degradation of the enzyme
Ki [3]: 21100 µM
Kd ([4]; NMR screening of hydroxamic acids, read-out: binding affinity for stromelysin): 17000 µM
Kd ([4]; Table 3, titration of acetohydroxamic acid itself, read-out: NMR KD): 17000 µM

CC(CCc1ccc(Oc2ccccc2)cc1)CC(=O)O (centres unmarked) [Compound 19]
Kd [1, 8]: 500 µM
Kd [1, 9]: 200 µM

O=C(O)c1ccc(-c2cc(Cl)cc(Cl)c2)cc1 [Compound 16]
Kd [1, 8]: 100 µM
Kd [1, 9]: > 50000 µM

OCc1ccc(-c2ccccc2)cc1 [Compound 2]
Kd [4, 10]: 3200 µM
